Test results published in publication PMC10285950 (ACS Omega, 2023).
Values joined by “and” are separate entries in the source; they are usually repeats but may differ in a detail not shown here. Equal entries are not always repeated.

Experiments:
human 5HT1A receptor = molecular target: T1, human 5HT1A receptor (Homo sapiens, UniProt P08908); experiment: [3H]8-OH-DPAT binding at the 5-HT1A receptor; conditions: HEK-h5HT1A membranes
T1 sequence (P08908 1-422): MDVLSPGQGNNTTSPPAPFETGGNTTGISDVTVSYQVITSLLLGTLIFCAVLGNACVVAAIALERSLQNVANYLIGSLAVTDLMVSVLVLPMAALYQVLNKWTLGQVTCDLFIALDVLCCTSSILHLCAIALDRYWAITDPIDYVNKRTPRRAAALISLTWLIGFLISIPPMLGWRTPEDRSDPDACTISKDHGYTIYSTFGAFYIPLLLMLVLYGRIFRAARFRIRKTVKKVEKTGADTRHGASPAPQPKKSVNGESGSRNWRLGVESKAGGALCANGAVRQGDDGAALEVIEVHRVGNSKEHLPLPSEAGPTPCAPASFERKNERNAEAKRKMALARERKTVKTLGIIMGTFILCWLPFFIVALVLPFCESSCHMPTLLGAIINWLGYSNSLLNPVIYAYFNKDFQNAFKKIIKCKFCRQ

h5HT7A receptor = h5HT7A receptor (Homo sapiens, UniProt P34969); experiment: [3H]5-HT binding at 5HT7A receptors; conditions: HEK cells transiently transfected with h5HT7A
[1] = molecular target: T2, 5-HT1AR (HEK-h5HT1A membranes) (Homo sapiens, UniProt P08908); experiment: HEK-5HT1A [35S]GTPγS binding functional assay; format: biochemical; conditions: for 5-HT1AR [35S]GTPγS assay % max ± SEM: maximal effect normalized to maximal effect of serotonin; for functional character at 5-HT1AR ([35S]GTPγS assay): result in words
T2 sequence (P08908 1-422): T1 sequence (P08908 1-422)

5-HT7AR [2] = molecular target: T3, 5-HT7AR (Homo sapiens, UniProt P34969); experiment: HEK-5HT7A/cAMP; format: cell-based
5-HT7AR [3] = molecular target: T3, 5-HT7AR; experiment: HEK-5HT7A/cAMP; format: cell-based; remark: listed apart in the source

T3 sequence (P34969 1-445 isoform P34969-2): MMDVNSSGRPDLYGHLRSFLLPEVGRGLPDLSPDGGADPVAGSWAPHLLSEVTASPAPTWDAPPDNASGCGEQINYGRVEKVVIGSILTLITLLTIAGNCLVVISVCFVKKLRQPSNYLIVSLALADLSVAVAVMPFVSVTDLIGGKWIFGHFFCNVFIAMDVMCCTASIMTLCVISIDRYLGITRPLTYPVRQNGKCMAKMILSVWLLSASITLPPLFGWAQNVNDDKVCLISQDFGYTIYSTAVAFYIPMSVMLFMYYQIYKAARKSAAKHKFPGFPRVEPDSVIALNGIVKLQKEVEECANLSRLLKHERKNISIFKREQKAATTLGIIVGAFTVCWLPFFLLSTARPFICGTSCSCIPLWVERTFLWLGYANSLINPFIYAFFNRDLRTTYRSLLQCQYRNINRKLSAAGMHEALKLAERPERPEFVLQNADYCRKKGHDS
Sequence of h5HT7A receptor (P34969 1-445 isoform P34969-2): as above

Row | 5-HT7AR [3H]5-HT binding hill slope ± SEM (h5HT7A receptor) | agonist activity at 5-HT7AR (5-HT7AR [2]; result in words) | 5-HT7AR adenylate cyclase % max inhib. ± SEM (5-HT7AR [3]; maximal inhibition of cAMP formation defined with 10 μM lurasidone) [%] | inhibition (5-HT7AR [3]; read-out: 5-HT7AR adenylate cyclase % max inhib. ± SEM) [%] | SMILES | 5-HT1AR [3H]8-OH-DPAT binding hill slope ± SEM (human 5HT1A receptor) | 5-HT1AR [35S]GTPγS assay % max ± SEM [1] | functional character at 5-HT1AR ([35S]GTPγS assay) [1] | 5-HT1AR [35S]GTPγS assay % max ± SEM ([1]; listed as serotonin (5-HT)) [%] | 5-HT7AR adenylate cyclase % max ± SEM (5-HT7AR [2]; agonist effect, normalized to maximal serotonin effect)
1 | –0.59 ± 0.03 | do not show any agonist activity | 94.7 ± 4.1 |  | CC1(CCCN2CCN(c3ccccn3)CC2)Cc2cc(Cl)ccc2C1=O (racemic) [SYA0340, 5-chloro-2-methyl-2-(3-(4-(pyridin-2-yl)piperazin-1-yl)propyl)-2,3-dihydro-1H-inden-1-one] | –0.66 ± 0.09 | 101.5% and 101.5 ± 2.8% | full agonist |  | 
2 | –0.76 ± 0.11 |  |  | 98 ± 2 | O=C1[C@@H]2[C@H]3CC[C@H](C3)[C@@H]2C(=O)N1C[C@@H]1CCCC[C@H]1CN1CCN(c2nsc3ccccc23)CC1 [lurasidone] |  |  |  |  | 

Row | SMILES | 5-HT7AR [3H]5-HT binding hill slope ± SEM (h5HT7A receptor) | agonist activity at 5-HT7AR (5-HT7AR [2]; result in words) | 5-HT7AR adenylate cyclase % max inhib. ± SEM (5-HT7AR [3]; maximal inhibition of cAMP formation defined with 10 μM lurasidone) [%] | inhibition (5-HT7AR [3]; read-out: 5-HT7AR adenylate cyclase % max inhib. ± SEM) [%] | 5-HT1AR [3H]8-OH-DPAT binding hill slope ± SEM (human 5HT1A receptor) | 5-HT1AR [35S]GTPγS assay % max ± SEM [1] | functional character at 5-HT1AR ([35S]GTPγS assay) [1] | 5-HT1AR [35S]GTPγS assay % max ± SEM ([1]; listed as serotonin (5-HT)) [%] | 5-HT7AR adenylate cyclase % max ± SEM (5-HT7AR [2]; agonist effect, normalized to maximal serotonin effect)
3 | NCCc1c[nH]c2ccc(O)cc12 [5-HT, serotonin] | –1.07 ± 0.09 |  |  |  | –0.96 ± 0.06 | 101.2 ± 1.1% | full agonist | 101.2 | 95.8% and 95.8 ± 1.6%
